The results in this text go back to patent publication EP4574147A1, “COMPOSITION FOR PREVENTING, AMELIORATING, OR TREATING CANCER COMPRISING STEPPOGENIN AS ACTIVE INGREDIENT” (Kyungpook National University Industry-Academic Cooperation …, priority 2022, dated 2024).

In one data set the test system is HEK293T cells. The data set is described as follows: Cell counting kit-8 assay (cell viability under hypoxic conditions). In kind it is cell-based, human. The conditions noted are these: hypoxia, compared to vehicle treatment (FIG. 3a). The method, then:
HEK293T cells were seeded at a density of 5 × 10^3 cells/well in 96-well plates and cultured at 37°C for 24 h. After 24 hours, the natural compounds were diluted in the medium according to the concentration and replaced. Cell viability was determined after exposure to hypoxic conditions for 24 h using the Cell Counting Kit-8 (DOJINDO, Rockville, MD, USA) according to the manufacturer's instructions, and measured using a microplate reader (Infinite M200 Pro; TECAN, Mannedorf, Switzerland) at 450 nm.
To test the inhibitory activity of 70 natural compounds on HIF-1 and DLL4 activity, their cytotoxic effects on immortalized normal cells were first tested under hypoxia conditions. In particular, under these conditions, HEK293T cells were treated with compounds at various concentrations (0.1 to 10 µM).
Background: Tetrazolium dyes change colour on reduction, which living cells bring about.

Data set [1] concerns HIF-1α. The data set is described as follows: HRE-luciferase dual-luciferase assay (HIF-1α promoter reporter activity). In kind it is cell-based, human. The protocol:
To perform the HRE-luciferase assay, HEK293T cells were seeded in a 96-well plate at a density of 5×10^3 cells/well and cultured at 37°C. Next, cells were co-transfected with pGL3-HRE-luciferase plasmid and pRL-SV40 Renilla plasmid containing 5 copies of HRE of human VEGF gene using a vivamagic transfection reagent (Vivagen, Seongnam, Korea) (Kwon et al., 2015). After 24 h, cells were pretreated with various concentrations of natural compounds for 1 h and then incubated under hypoxia conditions for 24 h. To perform the DLL4-luciferase assay, EA.hy926 cells were seeded in 24-well plates at a density of 4 × 10^4 cells/well and cultured at 37 °C for 24 h. Cells were co-transfected with pGL3-DLL4 luciferase and pRL-SV40 Renilla plasmids using Lipofectamine 2000 (Invitrogen) and cultured at 37°C for 24 h. Next, the cells were incubated with various concentrations of natural compounds for 1 h and then incubated for 24 h in the presence or absence of VEGF (10 ng/mL). The luminescence of HRE- and DLL4-promoter activities was detected using a microplate reader and the Dual-Luciferase Assay Kit (Promega, Madison, WI, USA) according to the manufacturer's instructions. The luciferase activity of the natural compounds was normalized to Renilla luciferase activity.
To select potential HIF-1α inhibitors, the effects of 70 natural compounds were tested on HIF-1α promoter reporter activity using a dual-luciferase assay.

Data set [2] has as its system HIF-1α. Briefly: Immunofluorescence staining of intranuclear HIF-1α. The format is cell-based, human. The conditions noted are these: A549 cells, hypoxia 4 h, immunofluorescence (FIG. 4b).
Protocol: Cells were seeded at a density of 2 × 10^4 - 3 × 10^4 cells/well on coverslips of 4-well plates and cultured for 24 h. For HIF-1α staining, A549 cells were treated with various compounds and incubated under normoxia or hypoxia conditions for 4 h. […] Next, the cells were fixed with 4% paraformaldehyde and permeabilized with 1% Triton X-100. The fixed cells were blocked with phosphate-buffered saline (PBS) containing 3% bovine serum albumin (BSA) and then incubated with primary antibodies overnight. After incubation, the cells were incubated with secondary antibodies for 1 hour and their nuclei were stained using DAPI. The stained cells were visualized using a confocal microscope (Leica TCS SP5 II Dichroic/CS, Leica, Germany).
The subject of data set [3] is HIF-1α target genes VEGF, GLUT1, CXCR4, and CA9. Briefly: Real-time qRT-PCR of HIF-1α target gene mRNA. The format is cell-based. The conditions noted are these: hypoxia (FIG. 4c). The method, then:
Total RNA was isolated using TRIzol Reagent (Invitrogen). The isolated RNA was used to synthesize cDNA using ReverTra Ace qPCR RT Master Mix (TOYOBO, Osaka, Japan) according to the manufacturer's protocol. The synthesized cDNA was mixed with gene-specific primers. Amplification real-time polymerase chain reaction (PCR) was performed using SYBR Green PCR Master Mix (Applied Biosystems, CA, USA). The heat cycle proceeded as follows: 50 °C for 2 min, 95 °C for 10 min, 40 cycles of denaturation at 95 °C for 15 s, and annealing at 60 °C for 1 min. Mean cycle threshold values were used to calculate mRNA expression with normalization to β-actin as an internal control.
A general note: Real-time PCR tracks product formation cycle by cycle.

A further data set relates to Notch1, and NICD. Briefly: Western blot analysis of VEGF-induced Notch1 and NICD protein levels. In kind it is cell-based, human. The conditions noted are these: HUVECs (FIG. 5a). The protocol:
Proteins were extracted from cultured cells using RIPA lysis buffer (Thermo Scientific, Waltham, MA, USA). The protein extracts were separated using SDS-PAGE and transferred to nitrocellulose membranes (Whatman, Maidstone, England). The membranes were blocked with 5% skim milk in Tris-buffered saline containing 0.1% Tween-20 for 1 hour at room temperature. After blocking, the membranes were incubated with specific primary antibodies overnight at 4°C, and then incubated with secondary antibodies for 1 hour at room temperature. Proteins were detected using the Enhanced Chemiluminescence Kit (Bio-Rad, Hercules, CA, USA) according to the manufacturer's instructions. Primary antibodies against HIF-1α (BD Biosciences, San Diego, CA, USA), VEGF (Santa Cruz Biotechnology, Santa Cruz, CA, USA), CXCR4 (Abcam, Cambridge, UK), CA9 (Abcam), DLL4 (Santa Cruz Biotechnology), NOTCH1 (Thermo Scientific), and β-actin (Santa Cruz Biotechnology) were used.
On the technique in general: Immunoblotting shows a protein as a band on a membrane.

Another data set has as its system DLL4. The data set is described as follows: Immunofluorescence staining of DLL4 in endothelial cells. In kind it is cell-based, human. The conditions noted are these: hypoxia, immunofluorescence (FIG. 5b). The protocol: (§1) Cells were seeded at a density of 2 × 10^4 - 3 × 10^4 cells/well on coverslips of 4-well plates and cultured for 24 h. For HIF-1α staining, A549 cells were treated with various compounds and incubated under normoxia or hypoxia conditions for 4 h. For Ki-67 and DLL4 staining, EA.hy926 cells were treated with the same compounds and maintained under VEGF (20 ng/mL) treatment. Next, the cells were fixed with 4% paraformaldehyde and permeabilized with 1% Triton X-100. The fixed cells were blocked with phosphate-buffered saline (PBS) containing 3% bovine serum albumin (BSA) and then incubated with primary antibodies overnight. After incubation, the cells were incubated with secondary antibodies for 1 hour and their nuclei were stained using DAPI. The stained cells were visualized using a confocal microscope (Leica TCS SP5 II Dichroic/CS, Leica, Germany).

The next data set concerns Ki-67. The data set is described as follows: Immunofluorescence staining of Ki-67 in endothelial cells. The format is cell-based, human. The conditions noted are these: hypoxia. The method, then: as §1
The subject of another data set is EA.hy926 cells. Briefly: Wound-healing migration assay. In kind it is cell-based, human. The protocol:
EA.hy926 cells were seeded at a density of 4 × 10^4 cells/well in 12-well plates and incubated for 24 hours. The cells were starved overnight in a serum-free medium and treated with mitomycin C (0.5 µg/mL) for 1 h. When confluent, a wound was made with a pipette tip and the cells were washed with a serum-free medium to remove cell debris. Next, the plates were treated with a conditioned medium collected from HEK293T cell cultures under hypoxia conditions treated with steppogenin. Wound closure was monitored and photographs were taken at 0 h and 8 h. Cell migration was measured by calculating the wound area between 0 h and 8 h.

In another data set the test system is EA.hy 926 cell. The data set is described as follows: Spheroid sprouting assay. In kind it is cell-based, human. The conditions noted are these: VEGF treatment, 2 days (FIG. 5d). The method, then: EA.hy 926 cell suspension (5×10^3 cells) was distributed on the lid of a 100 mm dish using a hanging-drop method and maintained for 24 hours. The next day, spheroids were harvested and mixed with Methocel stock solution containing 20% FBS. Next, spheroids containing Methocel solution were seeded in 24-well plates. After incubation at 37°C for 30 minutes, VEGF or steppogenin was added to the polymerized Methocel solution and incubated for 2 days.

Structures are written as SMILES.

As for `O=C1C[C@@H](c2ccc(O)cc2O)Oc2cc(O)cc(O)c21` [steppogenin, (2S)-2-(2,4-dihydroxyphenyl)-5,7-dihydroxy-2,3-dihydrochromen-4-one], the dose-dependent cell viability entry with HEK293T cells is given as “not altered”. Also, the HRE-luciferase reporter activity result in the data set with HIF-1α [1] (0.1 to 10 µM, dose-dependent, hypoxia (FIG. 3c)) is “significantly inhibited”. Moreover, the “HRE-luciferase activity compared to the hypoxic vehicle (DMSO) control group” value with HIF-1α [1] (HEK293T cells, hypoxia 24 h, screening (FIG. 2a)) was below 70%. Moreover, the IC50 in the data set with HIF-1α [1] (Homo sapiens, 72 h, HRE-luciferase reporter, hypoxia (FIG. 3d), read-out: half-maximal inhibitory concentration (IC50) for HIF-1α activity) was determined as 560 ± 43 nM. The “intranuclear expression of HIF-1α” value in the data set with HIF-1α [2] is on record as “decreased”. In data set [3], the “mRNA expression of CA9” value is listed as “inhibited”, the “mRNA expression of CXCR4” value is given as “inhibited”, the “mRNA expression of GLUT1” value is on record as “inhibited” and the “mRNA expression of VEGF” value was “inhibited”. For the same compound, in the data set on Notch1, and NICD, the “VEGF-induced NICD protein levels” value is given as “dose-dependently reduced” and the “VEGF-induced Notch1 protein levels” value was “dose-dependently reduced”. Also, the “DLL4 expression in ECs” value in the data set on DLL4 is “dramatically suppressed”. Further, the “level of Ki-67, a cell proliferation marker” value in the data set with Ki-67 is “decreased”. Also, in the data set with EA.hy926 cells (HUVECs, hypoxia, 0 h to 8 h (FIG. 5c)), the wound closure result is “significantly reduced”. The “number of migrating cells” value in the data set on EA.hy926 cells (hypoxia (FIG. 5c)) is recorded as “significantly reduced”. Besides, in the data set on EA.hy 926 cell, the “germination ability (number of germinations) in 3D EC spheroid cultures” value is listed as “significantly inhibited”.
